Legend:
[1] = system: female mosquito Culex pipiens antenna; test: GC-EAD antennal response, Culex pipiens; settings: female Culex pipiens antennae; about 100 ng of each compound; responses weak, but repeatable; FIGS. 7 and 8
Experimental: The GC-EAD responses of the female mosquito Culex pipiens antenna were tested on a synthetic mixture of 1-octen-3-ol, and two sesquiterpene hydrocarbons, β-caryophyllene and isocaryophyllene, with about 100 ng of each compound in the mixture.
The GC-EAD responses of the female mosquito Culex pipiens antenna were tested on a synthetic mixture of 1-octen-3-ol, and representative sesquiterpene hydrocarbons and derivatives including (+)-longipinene, (−)-isolongifolene, (+)-longifolene, β-caryophyllene, and isolongifolenone, with about 100 ng of each compound in the mixture.
Antennal responses were weak, but repeatable, thus are considered to be true responses.
(§1) The following procedures were employed to test the EAD response of an insect antenna to a repellent compound. The GC-EAD technique provides an efficient tool for screening behaviorally active repellents. Several synthetic mixtures of potential insect repellent candidates, mostly sesquiterpene hydrocarbons and derivatives, were analyzed in splitless mode using a Varian CP-3800 GC equipped with a polar column (Innowax; 1.0 μm film thickness, 30 m×0.53 mm ID; J & W Scientific), and a 1:1 effluent splitter that allowed simultaneous flame ionization detection (FID) and EAD of the separated volatile compounds. Helium was used as the carrier gas, and the injector temperature was 220° C. The column temperature was 50° C. for 2 min, rising to 240° C. at 10° C./min, then held for 10 min. The outlet for the EAD was held in a humidified air stream flowing at 0.5 liter/min. over an antennal preparation. A glass capillary indifferent electrode filled with Beadle-Ephrussi Ringer, and grounded via a silver wire, was inserted into the severed insect's head with the antennae. A similar recording electrode connected to a high-impedance DC amplifier with automatic baseline drift compensation was placed in contact with the distal end of one antenna (Zhang et al., Chemoecology, 10:69-80 (2000)). The antennal signals were stored and analyzed on a PC equipped with a serial IDAC interface box and the program EAD ver. 2.5 (Syntech, Hilversum, The Netherlands). The compound 1-octen-3-ol (known attractant for many flies and mosquitoes) was included in most of the synthetic mixtures, as a positive control. The results of the experiments are shown in FIGS. 1-10 and described above.

[2] = system: housefly (Musca domestica) antenna; test: GC-EAD antennal response, housefly; settings: female housefly antenna; synthetic mixture, about 100 ng of each compound; FIG. 3
Text: The sesquiterpene hydrocarbons and their derivatives disclosed herein have been identified as suitable insect repellents by testing via a gas chromatographic-electroantennographic detection (GC-EAD) method as described in Example 1 below. This method can be used to efficiently screen for potentially behaviorally active compounds, including insect repellents, attractants, deterrents, or attraction-inhibitors from complex natural sources or synthetic mixtures.
The GC-EAD responses of the female housefly antenna were tested on a synthetic mixture of 1-octen-3-ol, a known attractant used as a positive control, and representative sesquiterpene hydrocarbons and derivatives, (+)-longipinene, (−)-isolongifolene, (+)-longifolene, β-caryophyllene, α-humulene, and isolongifolenone, with about 100 ng of each compound in the mixture.
The GC-EAD responses of the male housefly antenna were tested on a synthetic mixture of 1-octen-3-ol, and two representative sesquiterpenes, β-caryophyllene and isocaryophyllene, with about 100 ng of each compound in the mixture.
as §1

[3] = system: female antennae of sand fly Phlebotomus papatasi and mosquitoes Aedes aegypti, Anopheles gambiae, Anopheles stephensi; test: GC-EAD responses of sand fly and three mosquitoes to synthetic mixtures; settings: about 100 ng of each compound, on one or more of the sand fly or the mosquitoes, FIGS. 9 and 10
Experimental: The GC-EAD responses of female antennae of the sand fly, Phlebotomus papatasi, and three species of mosquitoes, Aedes aegypti, Anopheles gambiae, and anopheles stephensi were tested on a synthetic mixture of 1-octen-3-ol, six sesquiterpene hydrocarbons including (+)-longipinene, (−)-isolongifolene, (+)-longifolene, β-caryophyllene, isolongifolenone, and α-humulene, and several known insect repellents including ZE-nepetalactone, EZ-nepetalactone, with about 100 ng of each compound in the mixture.
The GC-EAD responses of female antennae of the sand fly, Phlebotomus papatasi, and three species mosquitoes, Aedes aegypti, Anopheles gambiae, and anopheles stephensi were tested on a synthetic mixture of 1-octen-3-ol, linalool, β-caryophyllene oxide, isocaryophyllene, β-caryophyllene, and α-humulene, and DEET, with about 100 ng of each compound in the mixture.
as §1

houseflies = test: Laboratory sticky trap bioassay of spatial repellency with egg powder attractant; assay type: in vivo, housefly (Musca domestica); settings: egg powder plus repellent, FIG. 13
Experimental: Laboratory bioassay tests were carried out to investigate the efficacy of some of the EAD-active compounds described above to act as spatial repellents against several insects. The procedure for the bioassay tests is described in Example 2 below. Briefly stated, the bioassay included using egg powder (EP) as an attractant for flies, while the compound whose insect repellency was being tested was placed in proximity to the egg powder. In FIGS. 11-13, the bioassay was carried out on houseflies using devices known by the designation Trécé Pherocon® VI sticky traps.
The following lab bioassay tests were employed to illustrate the efficacy of the compounds to effectively act as spatial repellents for flies. Three sets of tests were conducted in a fly testing room (23° C., 70% RH, and 12/12 (L/D) light regime illuminated by fluorescent lights). Two sets of tests were carried out using Trécé Pherocon® VI traps with sticky inserts, which were set up on poles evenly spaced on a rotating table. The traps were ca. 1 m above a table surface, and ca. 1 m apart from each other. Two grams of egg powder in a white cap (4 cm in diameter, 0.5 cm in height) used as an attractant was put on the center of the sticky insert in the sticky trap. The potential repellent candidate chemicals were loaded into polyethylene bags, and were hung under the inner roof of the traps, 1-1.5 cm above the egg powder attractant. A control had the empty white cap and blank polyethylene bag, while the positive control had only the egg powder and an empty polyethylene bag. The test table was rotated 1.5 r.p.h. […] About 200-300 houseflies (2-3 days old) were released into the testing room for each test. Tests were normally run from 8:00 am to 5:00 pm, and the numbers of houseflies caught in each trap were counted after each test. The results of these tests are shown in FIGS. 11-13 and described above.

Structure (SMILES): CC1(C)C2=CCCC(C)(C)C23CCC1C3 (single isomer, unassigned; (-)) [(−)-isolongifolene, 2,2,7,7-tetramethyltricyclo undec-5-ene]
- GC-EAD antennal activity [1]: active
- GC-EAD antennal activity [2]: active
- GC-EAD antennal activity [3]: antennally active
- female house flies per trap (houseflies; egg powder alone 76 females): 39 house flies per trap
- male house flies per trap (houseflies; egg powder alone 95 males): 30 house flies per trap

Source: US8057829B2, “Methods for repelling insects using sesquiterpene hydrocarbons and their derivatives” (Sterling International Inc., priority 2008, dated 2011)
